pIC50: −log10 of the molar value.
Assays:
[1] = molecular target: T1, Nitric oxide synthase, inducible (Mus musculus, UniProt P29477); experiment: Tested to inhibit the conversion of [3H]L-arginine to [3H]L-citrulline catalyzed by inducible NOS from mouse macrophage J774 cells at concentration below 100 uM; No significant inhibition; assay type: cell-based
T1 sequence (P29477 whole entry): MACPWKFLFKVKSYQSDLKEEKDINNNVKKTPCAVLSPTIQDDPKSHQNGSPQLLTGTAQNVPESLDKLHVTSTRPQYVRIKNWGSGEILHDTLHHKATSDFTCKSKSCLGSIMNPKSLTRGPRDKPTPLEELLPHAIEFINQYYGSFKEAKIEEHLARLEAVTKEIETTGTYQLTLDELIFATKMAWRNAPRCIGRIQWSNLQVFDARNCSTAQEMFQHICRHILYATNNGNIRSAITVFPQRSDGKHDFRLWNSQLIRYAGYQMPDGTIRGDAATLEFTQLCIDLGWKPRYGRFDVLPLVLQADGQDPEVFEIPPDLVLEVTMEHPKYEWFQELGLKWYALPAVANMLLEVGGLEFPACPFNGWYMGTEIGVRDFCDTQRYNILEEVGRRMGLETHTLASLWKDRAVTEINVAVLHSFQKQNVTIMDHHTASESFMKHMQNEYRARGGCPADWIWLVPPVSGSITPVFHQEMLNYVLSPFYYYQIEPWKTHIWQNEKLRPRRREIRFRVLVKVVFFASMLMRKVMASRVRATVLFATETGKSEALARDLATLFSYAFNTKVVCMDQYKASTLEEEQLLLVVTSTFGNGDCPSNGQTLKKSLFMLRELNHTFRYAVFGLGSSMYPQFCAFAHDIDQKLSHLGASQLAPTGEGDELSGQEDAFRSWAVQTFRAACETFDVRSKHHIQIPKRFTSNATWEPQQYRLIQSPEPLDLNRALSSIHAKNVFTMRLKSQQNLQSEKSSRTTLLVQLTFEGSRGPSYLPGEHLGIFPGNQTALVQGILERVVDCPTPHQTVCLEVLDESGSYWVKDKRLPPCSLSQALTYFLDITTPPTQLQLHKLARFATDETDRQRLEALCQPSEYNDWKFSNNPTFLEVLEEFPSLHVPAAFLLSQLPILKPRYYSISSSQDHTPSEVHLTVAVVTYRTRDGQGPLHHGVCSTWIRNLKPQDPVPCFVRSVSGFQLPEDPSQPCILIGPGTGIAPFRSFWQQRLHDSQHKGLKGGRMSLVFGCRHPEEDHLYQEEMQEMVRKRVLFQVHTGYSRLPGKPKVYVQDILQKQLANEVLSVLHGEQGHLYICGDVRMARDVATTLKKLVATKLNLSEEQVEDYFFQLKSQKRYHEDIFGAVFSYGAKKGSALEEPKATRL

[2] = molecular target: T2, Nitric oxide synthase, inducible (Homo sapiens, UniProt P35228); experiment: Tested to inhibit the conversion of [3H]-L-arginine to [3H]L-citrulline catalyzed by inducible NOS from human DLD-1 cells at concentration below 100 uM; No significant inhibition; assay type: cell-based
T2 sequence (P35228 whole entry): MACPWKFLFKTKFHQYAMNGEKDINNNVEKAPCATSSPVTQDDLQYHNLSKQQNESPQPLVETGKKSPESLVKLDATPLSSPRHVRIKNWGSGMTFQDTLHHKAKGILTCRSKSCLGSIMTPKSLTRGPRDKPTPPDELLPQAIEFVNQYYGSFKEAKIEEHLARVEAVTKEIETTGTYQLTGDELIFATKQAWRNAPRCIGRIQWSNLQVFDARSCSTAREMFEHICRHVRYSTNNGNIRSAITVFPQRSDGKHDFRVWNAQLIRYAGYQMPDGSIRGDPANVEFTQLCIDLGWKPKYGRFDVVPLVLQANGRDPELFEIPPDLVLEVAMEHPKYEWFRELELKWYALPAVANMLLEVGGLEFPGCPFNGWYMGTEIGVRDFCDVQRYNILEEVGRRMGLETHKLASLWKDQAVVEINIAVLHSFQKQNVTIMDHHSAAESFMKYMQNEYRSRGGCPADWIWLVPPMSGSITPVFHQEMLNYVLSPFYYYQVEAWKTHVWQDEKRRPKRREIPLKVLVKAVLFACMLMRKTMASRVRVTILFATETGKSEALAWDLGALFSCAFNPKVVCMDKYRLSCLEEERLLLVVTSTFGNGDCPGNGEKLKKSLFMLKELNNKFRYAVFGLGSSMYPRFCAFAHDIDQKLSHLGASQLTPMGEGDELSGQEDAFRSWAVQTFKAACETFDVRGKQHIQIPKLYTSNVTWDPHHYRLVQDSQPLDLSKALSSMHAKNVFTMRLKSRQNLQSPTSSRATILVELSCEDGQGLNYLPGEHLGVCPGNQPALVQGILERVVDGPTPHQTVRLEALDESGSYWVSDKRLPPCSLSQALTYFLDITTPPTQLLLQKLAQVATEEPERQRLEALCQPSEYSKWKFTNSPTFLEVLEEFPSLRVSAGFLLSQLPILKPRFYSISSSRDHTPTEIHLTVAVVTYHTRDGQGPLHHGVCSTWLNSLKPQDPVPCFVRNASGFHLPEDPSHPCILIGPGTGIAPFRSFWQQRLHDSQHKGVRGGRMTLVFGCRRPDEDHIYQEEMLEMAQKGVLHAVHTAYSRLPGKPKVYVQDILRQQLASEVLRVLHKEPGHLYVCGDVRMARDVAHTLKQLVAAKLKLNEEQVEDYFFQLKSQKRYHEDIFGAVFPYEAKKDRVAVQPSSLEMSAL

Nitric oxide synthase 1 [3] = molecular target: T3, Nitric oxide synthase 1 (Rattus norvegicus, UniProt P29476); experiment: Tested to inhibit the conversion of [3H]L-arginine to [3H]L-citrulline catalyzed by neuronal NOS from rat cerebellum.; assay type: tissue-based
T3 sequence (P29476 whole entry): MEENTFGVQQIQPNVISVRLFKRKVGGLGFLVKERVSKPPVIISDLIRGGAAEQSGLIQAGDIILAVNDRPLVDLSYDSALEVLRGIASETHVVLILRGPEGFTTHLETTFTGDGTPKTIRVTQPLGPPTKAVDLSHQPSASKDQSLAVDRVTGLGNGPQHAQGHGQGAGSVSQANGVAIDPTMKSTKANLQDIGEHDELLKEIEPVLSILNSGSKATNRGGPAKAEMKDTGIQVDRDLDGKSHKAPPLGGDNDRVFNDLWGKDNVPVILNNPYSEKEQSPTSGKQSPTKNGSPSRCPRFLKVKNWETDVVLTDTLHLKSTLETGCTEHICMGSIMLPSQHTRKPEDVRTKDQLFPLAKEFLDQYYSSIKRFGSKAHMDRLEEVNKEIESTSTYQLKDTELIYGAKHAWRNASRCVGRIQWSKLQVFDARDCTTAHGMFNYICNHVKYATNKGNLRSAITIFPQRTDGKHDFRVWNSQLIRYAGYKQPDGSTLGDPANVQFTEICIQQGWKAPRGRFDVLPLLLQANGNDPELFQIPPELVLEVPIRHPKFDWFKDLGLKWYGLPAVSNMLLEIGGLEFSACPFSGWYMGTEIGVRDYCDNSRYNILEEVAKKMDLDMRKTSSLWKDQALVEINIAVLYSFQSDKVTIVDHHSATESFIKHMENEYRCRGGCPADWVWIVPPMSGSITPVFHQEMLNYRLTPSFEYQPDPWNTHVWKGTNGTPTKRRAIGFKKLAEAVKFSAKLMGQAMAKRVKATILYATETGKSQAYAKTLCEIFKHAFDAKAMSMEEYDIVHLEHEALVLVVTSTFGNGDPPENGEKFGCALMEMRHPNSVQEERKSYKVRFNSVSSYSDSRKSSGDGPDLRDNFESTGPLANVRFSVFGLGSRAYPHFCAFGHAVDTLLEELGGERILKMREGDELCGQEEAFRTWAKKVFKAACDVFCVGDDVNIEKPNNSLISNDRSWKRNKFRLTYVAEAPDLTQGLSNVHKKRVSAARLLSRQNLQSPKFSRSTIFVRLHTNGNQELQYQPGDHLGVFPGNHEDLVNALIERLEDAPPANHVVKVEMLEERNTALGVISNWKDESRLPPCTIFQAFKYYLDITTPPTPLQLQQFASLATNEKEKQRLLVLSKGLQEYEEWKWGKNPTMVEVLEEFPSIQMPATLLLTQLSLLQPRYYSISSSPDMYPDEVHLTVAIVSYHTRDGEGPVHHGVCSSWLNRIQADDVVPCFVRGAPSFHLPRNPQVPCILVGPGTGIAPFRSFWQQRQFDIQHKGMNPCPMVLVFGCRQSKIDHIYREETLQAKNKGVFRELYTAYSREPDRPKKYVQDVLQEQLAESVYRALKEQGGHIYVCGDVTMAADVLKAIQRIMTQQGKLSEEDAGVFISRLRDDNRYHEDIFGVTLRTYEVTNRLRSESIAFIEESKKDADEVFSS

Nitric oxide synthase 3 [4] = molecular target: T4, Nitric oxide synthase 3 (Homo sapiens, UniProt P29474); experiment: Tested to inhibit the conversion of [3H]L-arginine to [3H]L-citrulline catalyzed by endothelial NOS from human umbilical vein endothelial cells; No significant inhibition; assay type: cell-based; details: endothelial cell
T4 sequence (P29474 whole entry): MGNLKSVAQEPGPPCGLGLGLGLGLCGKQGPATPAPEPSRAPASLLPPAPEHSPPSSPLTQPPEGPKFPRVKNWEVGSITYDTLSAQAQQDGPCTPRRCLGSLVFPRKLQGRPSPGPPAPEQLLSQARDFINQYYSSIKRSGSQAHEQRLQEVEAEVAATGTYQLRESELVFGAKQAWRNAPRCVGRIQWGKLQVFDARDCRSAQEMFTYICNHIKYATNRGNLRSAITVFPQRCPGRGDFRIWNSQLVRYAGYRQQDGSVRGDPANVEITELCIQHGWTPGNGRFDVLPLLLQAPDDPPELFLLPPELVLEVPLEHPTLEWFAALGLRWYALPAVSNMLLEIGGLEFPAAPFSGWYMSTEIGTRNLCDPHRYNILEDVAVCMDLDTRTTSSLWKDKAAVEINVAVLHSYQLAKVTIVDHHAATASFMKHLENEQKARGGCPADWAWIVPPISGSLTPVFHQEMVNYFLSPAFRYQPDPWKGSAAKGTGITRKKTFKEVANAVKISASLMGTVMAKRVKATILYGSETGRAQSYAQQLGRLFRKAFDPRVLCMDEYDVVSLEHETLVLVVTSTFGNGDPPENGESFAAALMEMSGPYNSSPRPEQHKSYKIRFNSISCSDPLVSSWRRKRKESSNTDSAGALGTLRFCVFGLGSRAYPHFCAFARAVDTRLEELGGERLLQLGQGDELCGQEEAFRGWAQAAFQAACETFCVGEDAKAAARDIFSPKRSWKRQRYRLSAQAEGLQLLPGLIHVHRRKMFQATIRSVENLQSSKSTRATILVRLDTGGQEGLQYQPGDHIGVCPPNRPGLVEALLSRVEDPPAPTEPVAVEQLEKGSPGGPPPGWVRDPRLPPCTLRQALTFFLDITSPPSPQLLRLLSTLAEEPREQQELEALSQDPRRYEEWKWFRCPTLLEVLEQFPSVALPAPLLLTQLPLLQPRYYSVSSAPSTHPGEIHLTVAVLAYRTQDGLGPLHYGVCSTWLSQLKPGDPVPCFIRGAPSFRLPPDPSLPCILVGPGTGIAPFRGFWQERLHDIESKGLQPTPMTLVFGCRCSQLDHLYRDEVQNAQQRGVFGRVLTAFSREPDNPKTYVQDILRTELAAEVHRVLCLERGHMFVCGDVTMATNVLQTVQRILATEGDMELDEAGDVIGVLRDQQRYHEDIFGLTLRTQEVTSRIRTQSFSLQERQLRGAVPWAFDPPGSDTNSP

[5] = molecular target: T1, Nitric oxide synthase, inducible; experiment: Tested to inhibit the conversion of [3H]L-arginine to [3H]L-citrulline catalyzed by inducible NOS from mouse macrophage J774 cells; assay type: cell-based
[6] = molecular target: T2, Nitric oxide synthase, inducible; experiment: Tested to inhibit the conversion of [3H]L-arginine to [3H]L-citrulline catalyzed by inducible NOS from human DLD-1 cells.; assay type: cell-based
Nitric oxide synthase 3 [7] = molecular target: T4, Nitric oxide synthase 3; experiment: Tested to inhibit the conversion of [3H]L-arginine to [3H]L-citrulline catalyzed by endothelial NOS from human umbilical vein endothelial cells at concentration below 100 uM; No significant inhibition; assay type: cell-based; details: endothelial cell
Nitric oxide synthase 1 [8] = molecular target: T3, Nitric oxide synthase 1; experiment: Tested to inhibit the conversion of [3H]L-arginine to [3H]L-citrulline catalyzed by neuronal NOS from rat cerebellum at concentration below 100 uM; No significant inhibition

IC50 [1]	IC50 [2]	pIC50 (Nitric oxide synthase 1 [3])	IC50 (Nitric oxide synthase 3 [4])	pIC50 [5]	pIC50 [6]	SMILES	IC50 (Nitric oxide synthase 3 [7])	IC50 (Nitric oxide synthase 1 [8])
Not Active	Not Active	5.24	Not Active			CNn1c(N)nc2ccccc21		
				4.70	4.62	O=[N+]([O-])c1cccc2cn[nH]c12 [7-NITROINDAZOLE]		
		4.11		4.51	4.60	Nc1nc2ccccc2n1N	Not Active	

SMILES	IC50 [1]	IC50 [2]	pIC50 (Nitric oxide synthase 1 [3])	IC50 (Nitric oxide synthase 3 [4])	pIC50 [5]	pIC50 [6]	IC50 (Nitric oxide synthase 3 [7])	IC50 (Nitric oxide synthase 1 [8])
N=C(N)NN [PIMAGEDINE]					5.05	4.27	Not Active	Not Active

— ChEMBL document CHEMBL1151588, “1,2-diaminobenzimidazoles : Selective inhibitors of nitric oxide synthase derived from aminoguanidine” (Bioorg Med Chem Lett, 1995)
